Results as given in patent US7695930B2, “Method for the detection, identification and/or quantification of microoganisms with peptidase activity using phenoxazinone derivatives as enzyme substrates” (Biomerieux, priority 2003, dated 2010).

Tests used:
Assay in all cases: Leucine-peptidase detection on agar medium (Example 11); on color of the colony: key: B corresponds to fluorescent blue; R corresponds to pink
Assay type in all cases: cell-based
Enterobacter cloaccae = test system: Enterobacter cloaccae; on color of the colony: key: B corresponds to fluorescent blue; R corresponds to pink
Procedure: (§1) The detection medium was prepared by mixing 1.4 g of biogelytone (bioMérieux), 0.84 g of meat extract (bioMérieux), 2.24 g of NaCl (Merck), 280 μl of a solution of IPTG (isopropylthio-β-D-galactopyranoside, BIOSYNTH) in water (concentration 10 g/l) and 4.2 g of European agar (bioMérieux).
(§2) The substrate of the invention obtained in Example 2, in which the amino acid is leucine (leucine-9-aminobenzo[a]phenoxazin-5-one or Leu-ABP), or else a substrate of the prior art, which is leucine-aminomethylcoumarin (Leu-AMC, BACHEM), was then added in the following way: 280 ml of osmosed water were added to the medium, and the mixture was melted in a waterbath at 100° C. The mixture was autoclaved for 15 min at 121° C. and cooled to 50° C. in a waterbath.
(§3) The medium was then poured into Petri dishes.
(§4) The coloration of these colonies, the diffusion, and also the intensity of this coloration were noted.
(§5) The results were expressed as intensity of coloration using an arbitrary scale ranging from 0 to 4 as a basis and also as diffusion also using an arbitrary scale ranging from 0 to 4 as a basis.

Enterococcus faecalis = test system: Enterococcus faecalis; on color of the colony: key: B corresponds to fluorescent blue; R corresponds to pink
Procedure: as §1, §2, §3, §4, §5

Escherichia coli = test system: Escherichia coli; on color of the colony: key: B corresponds to fluorescent blue; R corresponds to pink
Procedure: as §1, §2, §3, §4, §5

Pseudomonas aeruginosa = test system: Pseudomonas aeruginosa; on color of the colony: key: B corresponds to fluorescent blue; R corresponds to pink
Procedure: as §1, §2, §3, §4, §5

Serratia marcescens = test system: Serratia marcescens; on color of the colony: key: B corresponds to fluorescent blue; R corresponds to pink
Procedure: as §1, §2, §3, §4, §5

Staphylococcus aureus = test system: Staphylococcus aureus; on color of the colony: key: B corresponds to fluorescent blue; R corresponds to pink
Procedure: as §1, §2, §3, §4, §5

leucine-9-aminobenzo[a]phenoxazin-5-one [Leu-ABP]
0.3 mm: growth diameter (Enterococcus faecalis; 24 h, 25 mg/l) | growth diameter (Enterococcus faecalis; 24 h, 50 mg/l) | growth diameter (Enterococcus faecalis; 24 h, 100 mg/l) | growth diameter (Enterococcus faecalis; 24 h, 200 mg/l) | growth diameter (Enterococcus faecalis; 24 h, 400 mg/l) | growth diameter (Enterococcus faecalis; 48 h, 25 mg/l) | growth diameter (Enterococcus faecalis; 48 h, 50 mg/l) | growth diameter (Enterococcus faecalis; 48 h, 100 mg/l) | growth diameter (Enterococcus faecalis; 48 h, 200 mg/l) | growth diameter (Enterococcus faecalis; 48 h, 400 mg/l) | growth diameter (Staphylococcus aureus; 24 h, 25 mg/l)
0.5 mm: growth diameter (Enterobacter cloaccae; 24 h, 50 mg/l) | growth diameter (Enterobacter cloaccae; 48 h, 50 mg/l) | growth diameter (Serratia marcescens; 24 h, 25 mg/l) | growth diameter (Serratia marcescens; 48 h, 50 mg/l) | growth diameter (Serratia marcescens; 48 h, 100 mg/l) | growth diameter (Serratia marcescens; 48 h, 200 mg/l) | growth diameter (Serratia marcescens; 48 h, 400 mg/l)
1.3 mm: growth diameter (Enterobacter cloaccae; 48 h, 100 mg/l)
1 mm: growth diameter (Enterobacter cloaccae; 24 h, 100 mg/l)
0.7 mm: growth diameter (Enterobacter cloaccae; 24 h, 25 mg/l) | growth diameter (Enterobacter cloaccae; 48 h, 25 mg/l) | growth diameter (Serratia marcescens; 48 h, 25 mg/l) | growth diameter (Staphylococcus aureus; 48 h, 25 mg/l)
2: intensity of coloration, scale 0 to 4 (Pseudomonas aeruginosa; 48 h, 200 mg/l)
2.5: intensity of coloration, scale 0 to 4 (Enterobacter cloaccae; 24 h, 50 mg/l) | intensity of coloration, scale 0 to 4 (Enterobacter cloaccae; 48 h, 25 mg/l) | intensity of coloration, scale 0 to 4 (Pseudomonas aeruginosa; 48 h, 50 mg/l) | intensity of coloration, scale 0 to 4 (Pseudomonas aeruginosa; 48 h, 100 mg/l) | intensity of coloration, scale 0 to 4 (Serratia marcescens; 48 h, 25 mg/l)
1: intensity of coloration, scale 0 to 4 (Pseudomonas aeruginosa; 48 h, 25 mg/l) | intensity of coloration, scale 0 to 4 (Serratia marcescens; 24 h, 50 mg/l) | intensity of coloration, scale 0 to 4 (Serratia marcescens; 48 h, 200 mg/l)
2 mm: growth diameter (Pseudomonas aeruginosa; 24 h, 25 mg/l) | growth diameter (Pseudomonas aeruginosa; 24 h, 50 mg/l) | growth diameter (Pseudomonas aeruginosa; 24 h, 100 mg/l) | growth diameter (Pseudomonas aeruginosa; 24 h, 200 mg/l) | growth diameter (Pseudomonas aeruginosa; 24 h, 400 mg/l) | growth diameter (Pseudomonas aeruginosa; 48 h, 25 mg/l) | growth diameter (Pseudomonas aeruginosa; 48 h, 50 mg/l) | growth diameter (Pseudomonas aeruginosa; 48 h, 100 mg/l) | growth diameter (Pseudomonas aeruginosa; 48 h, 200 mg/l) | growth diameter (Pseudomonas aeruginosa; 48 h, 400 mg/l)
R: color of the colony (Enterobacter cloaccae; 24 h, 25 mg/l) | color of the colony (Enterobacter cloaccae; 24 h, 50 mg/l) | color of the colony (Enterobacter cloaccae; 24 h, 100 mg/l) | color of the colony (Enterobacter cloaccae; 24 h, 200 mg/l) | color of the colony (Enterobacter cloaccae; 24 h, 400 mg/l) | color of the colony (Enterobacter cloaccae; 48 h, 25 mg/l) | color of the colony (Enterobacter cloaccae; 48 h, 50 mg/l) | color of the colony (Enterobacter cloaccae; 48 h, 100 mg/l) | color of the colony (Enterobacter cloaccae; 48 h, 200 mg/l) | color of the colony (Enterobacter cloaccae; 48 h, 400 mg/l) | color of the colony (Enterococcus faecalis; 24 h, 25 mg/l) | color of the colony (Enterococcus faecalis; 24 h, 50 mg/l) | color of the colony (Enterococcus faecalis; 48 h, 25 mg/l) | color of the colony (Enterococcus faecalis; 48 h, 50 mg/l) | color of the colony (Enterococcus faecalis; 48 h, 100 mg/l) | color of the colony (Enterococcus faecalis; 48 h, 400 mg/l) | color of the colony (Escherichia coli; 24 h, 25 mg/l) | color of the colony (Escherichia coli; 24 h, 50 mg/l) | color of the colony (Escherichia coli; 24 h, 100 mg/l) | color of the colony (Escherichia coli; 24 h, 400 mg/l) | color of the colony (Escherichia coli; 48 h, 25 mg/l) | color of the colony (Escherichia coli; 48 h, 50 mg/l) | color of the colony (Escherichia coli; 48 h, 100 mg/l) | color of the colony (Pseudomonas aeruginosa; 24 h, 50 mg/l) | color of the colony (Pseudomonas aeruginosa; 24 h, 100 mg/l) | color of the colony (Pseudomonas aeruginosa; 24 h, 200 mg/l) | color of the colony (Pseudomonas aeruginosa; 24 h, 400 mg/l) | color of the colony (Pseudomonas aeruginosa; 48 h, 25 mg/l) | color of the colony (Pseudomonas aeruginosa; 48 h, 50 mg/l) | color of the colony (Pseudomonas aeruginosa; 48 h, 100 mg/l) | color of the colony (Pseudomonas aeruginosa; 48 h, 200 mg/l) | color of the colony (Pseudomonas aeruginosa; 48 h, 400 mg/l) | color of the colony (Serratia marcescens; 24 h, 25 mg/l) | color of the colony (Serratia marcescens; 24 h, 50 mg/l) | color of the colony (Serratia marcescens; 24 h, 100 mg/l) | color of the colony (Serratia marcescens; 48 h, 25 mg/l) | color of the colony (Serratia marcescens; 48 h, 50 mg/l) | color of the colony (Serratia marcescens; 48 h, 100 mg/l) | color of the colony (Serratia marcescens; 48 h, 200 mg/l) | color of the colony (Serratia marcescens; 48 h, 400 mg/l) | color of the colony (Staphylococcus aureus; 48 h, 25 mg/l)
0.4 mm: growth diameter (Serratia marcescens; 24 h, 50 mg/l) | growth diameter (Serratia marcescens; 24 h, 100 mg/l) | growth diameter (Serratia marcescens; 24 h, 200 mg/l) | growth diameter (Serratia marcescens; 24 h, 400 mg/l)
3: intensity of coloration, scale 0 to 4 (Enterobacter cloaccae; 24 h, 100 mg/l) | intensity of coloration, scale 0 to 4 (Enterobacter cloaccae; 24 h, 200 mg/l) | intensity of coloration, scale 0 to 4 (Enterobacter cloaccae; 24 h, 400 mg/l) | intensity of coloration, scale 0 to 4 (Enterobacter cloaccae; 48 h, 50 mg/l) | intensity of coloration, scale 0 to 4 (Enterobacter cloaccae; 48 h, 100 mg/l) | intensity of coloration, scale 0 to 4 (Enterobacter cloaccae; 48 h, 200 mg/l) | intensity of coloration, scale 0 to 4 (Enterobacter cloaccae; 48 h, 400 mg/l) | intensity of coloration, scale 0 to 4 (Serratia marcescens; 48 h, 50 mg/l)
0.25: intensity of coloration, scale 0 to 4 (Escherichia coli; 48 h, 25 mg/l) | intensity of coloration, scale 0 to 4 (Serratia marcescens; 24 h, 100 mg/l) | intensity of coloration, scale 0 to 4 (Staphylococcus aureus; 48 h, 25 mg/l)
1.7 mm: growth diameter (Enterobacter cloaccae; 48 h, 400 mg/l) | growth diameter (Escherichia coli; 24 h, 50 mg/l) | growth diameter (Escherichia coli; 24 h, 200 mg/l) | growth diameter (Escherichia coli; 48 h, 200 mg/l)
0.5: intensity of coloration, scale 0 to 4 (Enterococcus faecalis; 48 h, 400 mg/l) | intensity of coloration, scale 0 to 4 (Escherichia coli; 24 h, 50 mg/l) | intensity of coloration, scale 0 to 4 (Escherichia coli; 48 h, 50 mg/l) | intensity of coloration, scale 0 to 4 (Pseudomonas aeruginosa; 24 h, 200 mg/l) | intensity of coloration, scale 0 to 4 (Pseudomonas aeruginosa; 24 h, 400 mg/l) | intensity of coloration, scale 0 to 4 (Pseudomonas aeruginosa; 48 h, 400 mg/l) | intensity of coloration, scale 0 to 4 (Serratia marcescens; 24 h, 25 mg/l) | intensity of coloration, scale 0 to 4 (Serratia marcescens; 48 h, 400 mg/l)
1.5: intensity of coloration, scale 0 to 4 (Enterobacter cloaccae; 24 h, 25 mg/l) | intensity of coloration, scale 0 to 4 (Serratia marcescens; 48 h, 100 mg/l)
1.8 mm: growth diameter (Escherichia coli; 24 h, 25 mg/l) | growth diameter (Escherichia coli; 24 h, 100 mg/l) | growth diameter (Escherichia coli; 24 h, 400 mg/l) | growth diameter (Escherichia coli; 48 h, 25 mg/l) | growth diameter (Escherichia coli; 48 h, 50 mg/l) | growth diameter (Escherichia coli; 48 h, 100 mg/l) | growth diameter (Escherichia coli; 48 h, 400 mg/l)
0.75: intensity of coloration, scale 0 to 4 (Escherichia coli; 24 h, 400 mg/l) | intensity of coloration, scale 0 to 4 (Pseudomonas aeruginosa; 24 h, 50 mg/l) | intensity of coloration, scale 0 to 4 (Pseudomonas aeruginosa; 24 h, 100 mg/l)
0.2 mm: growth diameter (Staphylococcus aureus; 24 h, 50 mg/l) | growth diameter (Staphylococcus aureus; 48 h, 50 mg/l)
0.0: intensity of coloration, scale 0 to 4 (Enterococcus faecalis; 24 h, 25 mg/l) | intensity of coloration, scale 0 to 4 (Enterococcus faecalis; 24 h, 50 mg/l) | intensity of coloration, scale 0 to 4 (Enterococcus faecalis; 48 h, 25 mg/l) | intensity of coloration, scale 0 to 4 (Enterococcus faecalis; 48 h, 50 mg/l) | intensity of coloration, scale 0 to 4 (Enterococcus faecalis; 48 h, 100 mg/l) | intensity of coloration, scale 0 to 4 (Escherichia coli; 24 h, 25 mg/l) | intensity of coloration, scale 0 to 4 (Escherichia coli; 24 h, 100 mg/l)
1.5 mm: growth diameter (Enterobacter cloaccae; 24 h, 200 mg/l) | growth diameter (Enterobacter cloaccae; 24 h, 400 mg/l) | growth diameter (Enterobacter cloaccae; 48 h, 200 mg/l)
